How the values were obtained:
HepG2 cells = assay: In vitro anti-proliferative SRB assay, HepG2; type: cell-based, human; details: for IC50: HepG2, increasing concentrations up to 30 μM, mean ± SD of at least three independent experiments; for SI (CC50 HMLE/IC50 HepG2) / SI (CC50 L02/IC50 HepG2): selectivity index; for SI (CC50 HMLE/IC50 HepG2): HMLE vs HepG2; for SI (CC50 L02/IC50 HepG2): L02 vs HepG2
Procedure: (§1) HepG2 and MCF7 cells were grown in the Eagle’s minimum essential medium with Earle’s balanced salts (MEM-EBSS) medium, HeLa, A549 and L02 cells were grown in Dulbecco’s Modified Eagle Media (DMEM), SW1990 cells were grown in RPMI-1640 medium, and HMLE cell were grown in DMEM/F-12 medium. […]
(§2) Cells were seeded into 96-well plates (4000 cells/well) and incubated at 37 °C in a humidified 5% CO2 atmosphere. After 24 h, the cells were treated with different concentrations of the compounds for 48 h in triplicate to generate dose-response curves. Cell viability was evaluated using the sulforhodamine B (SRB) assay as previous described.

HeLa cells = assay: In vitro anti-proliferative SRB assay, HeLa; type: cell-based, human; details: for IC50: Homo sapiens, HeLa, increasing concentrations up to 30 μM, mean ± SD of at least three independent experiments; for SI (CC50 HMLE/IC50 Hela) / SI (CC50 L02/IC50 Hela): selectivity index; for SI (CC50 HMLE/IC50 Hela): HMLE vs HeLa; for SI (CC50 L02/IC50 Hela): L02 vs HeLa
Procedure: as §1, §2

MCF-7 cells = assay: In vitro anti-proliferative SRB assay, MCF-7; type: cell-based, human; details: for IC50: Homo sapiens, MCF7, increasing concentrations up to 30 μM, mean ± SD of at least three independent experiments; for SI (CC50 HMLE/IC50 MCF7) / SI (CC50 L02/IC50 MCF7): selectivity index; for SI (CC50 HMLE/IC50 MCF7): HMLE vs MCF7; for SI (CC50 L02/IC50 MCF7): L02 vs MCF7
Procedure: as §1, §2

A549 cells = assay: In vitro anti-proliferative SRB assay, A549; type: cell-based, human; details: for IC50: Homo sapiens, A549, increasing concentrations up to 30 μM, mean ± SD of at least three independent experiments; for SI (CC50 HMLE/IC50 A549) / SI (CC50 L02/IC50 A549): selectivity index; for SI (CC50 HMLE/IC50 A549): HMLE vs A549; for SI (CC50 L02/IC50 A549): L02 vs A549
Procedure: as §1, §2

SW1990 cells = assay: In vitro anti-proliferative SRB assay, SW1990; type: cell-based, human; details: for IC50: Homo sapiens, SW1990, increasing concentrations up to 30 μM, mean ± SD of at least three independent experiments; for SI (CC50 HMLE/IC50 SW1990) / SI (CC50 L02/IC50 SW1990): selectivity index; for SI (CC50 HMLE/IC50 SW1990): HMLE vs SW1990; for SI (CC50 L02/IC50 SW1990): L02 vs SW1990
Procedure: as §1, §2

[1] = Cytotoxicity (SRB) against non-tumoral HMLE cells; type: cell-based, human; details: human, HMLE cells (non-tumoral human mammary epithelial cells); increasing concentrations up to 100 μM; mean ± SD of at least three independent experiments; read-out: Normal Human Cell Lines, CC50, HMLE
Procedure: (§3) All compounds were also evaluated for their cytotoxic activity against two non-tumoral human cell lines named human mammary epithelial cell (HMLE) and L02 (a human liver cell line) in Table 2 and SI values between the CC50 in non-tumoral cell lines and IC50 in tumoral cells calculated.
as §1
as §2, with “described. […] Etoposide was used as the positive control.” for “described.”

[2] = Cytotoxicity (SRB) against non-tumoral L02 cells; type: cell-based, human; details: human, L02 cells (non-tumoral human liver cell line); increasing concentrations up to 100 μM; mean ± SD of at least three independent experiments; read-out: Normal Human Cell Lines, CC50, L02
Procedure: as §3, §1
as §2, with “described. […] Etoposide was used as the positive control.” for “described.”

Structure (SMILES)	IC50 (HepG2 cells; Homo sapiens) [µM]	SI (CC50 HMLE/IC50 HepG2) (HepG2 cells)	SI (CC50 L02/IC50 HepG2) (HepG2 cells)	IC50 (HeLa cells) [µM]	SI (CC50 HMLE/IC50 Hela) (HeLa cells)	SI (CC50 L02/IC50 Hela) (HeLa cells)	IC50 (MCF-7 cells) [µM]	SI (CC50 HMLE/IC50 MCF7) (MCF-7 cells)	SI (CC50 L02/IC50 MCF7) (MCF-7 cells)	IC50 (A549 cells) [µM]	SI (CC50 HMLE/IC50 A549) (A549 cells)	SI (CC50 L02/IC50 A549) (A549 cells)	IC50 (SW1990 cells) [µM]	SI (CC50 HMLE/IC50 SW1990) (SW1990 cells)	SI (CC50 L02/IC50 SW1990) (SW1990 cells)	CC50 at 48 h [1] [µM]	CC50 at 48 h [2] [µM]	melting point [°C]	inhibition at 10 µM (HepG2 cells; Homo sapiens, HepG2 cells, 10 μM, SRB assay, mean ± SD of three independent experiments) [%]
COc1cccc(OC)c1/C=C/C(=O)c1ccccc1C [b2, (E)-1-(2-Methylphenyl)-3-(2,6-dimethoxyphenyl)prop-2-en-1-one]	14.1 ± 1.84	1.1	2.5	18.4 ± 0.75	0.8	1.9	19.1 ± 2.11	0.8	1.9	25.5 ± 4.14	0.6	1.4	> 30	<0.5	<1.2	15 ± 0.78	35.9 ± 3.4	79.8 to 81.4	
COc1cccc(OC)c1/C=C/C(=O)c1ccc(Cl)c(Cl)c1 [b38, (E)-1-(3,4-Dichlorophenyl)-3-(2,6-dimethoxyphenyl)prop-2-en-1-one]	18.6 ± 1.24	1.5	>5.4	17.6 ± 2.01	1.6	>5.7	29.6 ± 2.13	1.0	>3.4	27.6 ± 0.58	1.0	>3.6	26.16 ± 0.08	1.1	>3.8	28.3 ± 3.74	> 100	142.1 to 143.4	
COc1cccc(OC)c1/C=C/C(=O)c1ccc(Cl)cc1 [b35, (E)-1-(4-Chlorophenyl)-3-(2,6-dimethoxyphenyl)prop-2-en-1-one]	27.1 ± 0.88	0.7	3.2	18.4 ± 0.06	1.0	4.6	29.8 ± 0.8	0.6	2.9	> 30	<0.6	<2.8	> 30	<0.6	<2.8	17.7 ± 1.35	85.4 ± 6.86	107.9 to 109.7	
COc1cccc(OC)c1/C=C/C(=O)c1ccc(C)cc1 [b4, (E)-1-(4-Methylphenyl)-3-(2,6-dimethoxyphenyl)prop-2-en-1-one]	19.5 ± 1.28	0.7	3.1	18.6 ± 0.36	0.7	3.2	25.44 ± 0.15	0.5	2.3	22.1 ± 0.6	0.6	2.7	> 30	<0.5	<2.0	13.8 ± 1.69	59.6 ± 5.56	82.7 to 84.5	
COc1cccc(OC)c1/C=C/C(=O)c1ccccc1O [b24, (E)-1-(2-Hydroxyphenyl)-3-(2,6-dimethoxyphenyl)prop-2-en-1-one]	7.77 ± 0.08	1.2	3.1	13.4 ± 0.74	0.7	1.8	10.7 ± 0.38	0.8	2.3	8.64 ± 0.31	1.0	2.8	16.1 ± 0.32	0.6	1.5	8.96 ± 0.44	24.2 ± 2.71	114.2 to 115.9	
COc1cccc(OC)c1/C=C/C(=O)c1ccc(C)c(C)c1 [b5, (E)-1-(3,4-Dimethylphenyl)-3-(2,6-dimethoxyphenyl)prop-2-en-1-one]	26.8 ± 0.3	0.6	0.9	20.3 ± 1.01	0.8	1.2	30.31 ± 0.29	0.5	0.8	> 30	<0.5	<0.8	> 30	<0.5	<0.8	15.7 ± 0.76	25.2 ± 2.71	98.9 to 101.1	
COc1ccc(C(=O)/C=C/c2cc(OC)cc(OC)c2)cc1 [a16, (E)-1-(4-Methoxyphenyl)-3-(3,5-dimethoxyphenyl)prop-2-en-1-one]	9.2 ± 0.31	0.4	1.0	12.4 ± 0.34	0.3	0.7	23.1 ± 0.79	0.1	0.4	21.2 ± 0.55	0.2	0.4	17.8 ± 0.07	0.2	0.5	3.28 ± 0.31	8.87 ± 1.83	87.6 to 89.1	70.6 ± 2
COc1cccc(OC)c1/C=C/C(=O)c1cccc(O)c1 [b25, (E)-1-(3-Hydroxyphenyl)-3-(2,6-dimethoxyphenyl)prop-2-en-1-one]	7.27 ± 0.13	0.9	2.7	9.56 ± 0.33	0.7	2.1	8.92 ± 0.25	0.7	2.2	12.7 ± 0.28	0.5	1.5	21 ± 0.43	0.3	0.9	6.31 ± 0.13	19.6 ± 1.29	138.1 to 139.7	
COc1cc(C(=O)/C=C/c2c(OC)cccc2OC)ccc1OCc1ccccc1 [b15, (E)-1-(4-(Benzyloxy)-3-methoxyphenyl)-3-(2,6-dimethoxyphenyl)prop-2-en-1-one]	> 30			> 30			> 30			> 30			> 30			> 100	> 100	112.8 to 114.1	
COc1cccc(OC)c1/C=C/C(=O)c1cccc(C)c1 [b3, (E)-1-(3-Methylphenyl)-3-(2,6-dimethoxyphenyl)prop-2-en-1-one]	12.8 ± 0.5	1.3	2.6	13.3 ± 2.14	1.2	2.5	26.8 ± 4.26	0.6	1.2	20.7 ± 0.59	0.8	1.6	25.2 ± 2	0.6	1.3	16.2 ± 0.19	33.3 ± 1.61	102.5 to 103.8	
COc1ccc(C(=O)/C=C/c2c(OC)cccc2OC)cc1OC [b19, (E)-1-(3,4-Dimethoxyphenyl)-3-(2,6-dimethoxyphenyl)prop-2-en-1-one]	7.12 ± 0.67	1.5	5.6	9.26 ± 0.04	1.1	4.3	19.7 ± 0.2	0.5	2.0	13.6 ± 0.85	0.8	2.9	13.84 ± 0.06	0.8	2.9	10.5 ± 0.41	39.8 ± 6.32	120.5 to 122.7	

Reference: publication PMC6271338, “Synthesis and Cytotoxic Evaluation of Alkoxylated Chalcones” (Molecules, 2014)
